Measurements: the NIST ThermoML archive (doi:10.1021/je100707s)
Several values for one entry are separate records, joined by “and”; a condition that tells them apart may be missing. Equal values may be shown once. ± gives the expanded uncertainty stated by the source.

Settings: Gas, Bellows volumetry

F/C=C/C(F)(F)F [trans-1,3,3,3-tetrafluoropropene]
Settings	mass density
310 K, 657 kPa	34.36 ± 0.45 kg/m3
310 K, 669 kPa	35.06 ± 0.38 kg/m3
310 K, 681 kPa	35.86 ± 0.48 kg/m3
310 K, 695 kPa	36.78 ± 0.48 kg/m3
320 K, 691 kPa	34.42 ± 0.47 kg/m3
320 K, 701 kPa	35.05 ± 0.45 kg/m3
320 K, 716 kPa	35.92 ± 0.46 kg/m3
320 K, 730 kPa	36.8 ± 0.46 kg/m3
320 K, 743 kPa	37.6 ± 0.48 kg/m3
320 K, 759 kPa	38.61 ± 0.49 kg/m3
320 K, 775 kPa	39.62 ± 0.51 kg/m3
320 K, 791 kPa	40.64 ± 0.53 kg/m3
320 K, 808 kPa	41.76 ± 0.53 kg/m3
320 K, 823 kPa	42.77 ± 0.55 kg/m3
320 K, 837 kPa	43.67 ± 0.53 kg/m3
320 K, 851 kPa	44.36 ± 0.45 kg/m3
320 K, 866 kPa	45.45 ± 0.49 kg/m3
320 K, 881 kPa	46.49 ± 0.49 kg/m3
320 K, 899 kPa	47.75 ± 0.51 kg/m3
320 K, 910 kPa	48.63 ± 0.53 kg/m3
330 K, 718 kPa	34.26 ± 0.45 kg/m3
330 K, 731 kPa	34.99 ± 0.45 kg/m3
330 K, 746 kPa	35.85 ± 0.46 kg/m3
330 K, 762 kPa	36.76 ± 0.46 kg/m3
330 K, 778 kPa	37.66 ± 0.48 kg/m3
330 K, 792 kPa	38.48 ± 0.48 kg/m3
330 K, 810 kPa	39.52 ± 0.5 kg/m3
330 K, 828 kPa	40.65 ± 0.52 kg/m3
330 K, 844 kPa	41.61 ± 0.52 kg/m3
330 K, 866 kPa	42.95 ± 0.53 kg/m3
330 K, 893 kPa	44.43 ± 0.45 kg/m3
330 K, 908 kPa	45.39 ± 0.47 kg/m3
330 K, 927 kPa	46.54 ± 0.46 kg/m3
330 K, 943 kPa	47.55 ± 0.48 kg/m3
330 K, 961 kPa	48.73 ± 0.48 kg/m3
330 K, 981 kPa	50.03 ± 0.51 kg/m3
330 K, 1001 kPa	51.36 ± 0.52 kg/m3
330 K, 1020 kPa	52.67 ± 0.54 kg/m3
330 K, 1041 kPa	54.12 ± 0.55 kg/m3
330 K, 1063 kPa	55.64 ± 0.55 kg/m3
330 K, 1075 kPa	56.44 ± 0.57 kg/m3
330 K, 1097 kPa	57.98 ± 0.48 kg/m3
330 K, 1113 kPa	59.21 ± 0.49 kg/m3
330 K, 1139 kPa	61.03 ± 0.51 kg/m3
330 K, 1165 kPa	63.02 ± 0.52 kg/m3
340 K, 747 kPa	34.24 ± 0.44 kg/m3
340 K, 762 kPa	35.03 ± 0.44 kg/m3
340 K, 778 kPa	35.89 ± 0.45 kg/m3
340 K, 794 kPa	36.75 ± 0.46 kg/m3
340 K, 810 kPa	37.63 ± 0.47 kg/m3
340 K, 827 kPa	38.54 ± 0.47 kg/m3
340 K, 845 kPa	39.55 ± 0.49 kg/m3
340 K, 864 kPa	40.55 ± 0.51 kg/m3
340 K, 882 kPa	41.66 ± 0.52 kg/m3
340 K, 903 kPa	42.85 ± 0.53 kg/m3
340 K, 921 kPa	43.82 ± 0.53 kg/m3
340 K, 933 kPa	44.41 ± 0.43 kg/m3
340 K, 953 kPa	45.51 ± 0.46 kg/m3
340 K, 971 kPa	46.56 ± 0.46 kg/m3
340 K, 989 kPa	47.62 ± 0.48 kg/m3
340 K, 1008 kPa	48.82 ± 0.48 kg/m3
340 K, 1030 kPa	50.12 ± 0.5 kg/m3
340 K, 1049 kPa	51.33 ± 0.51 kg/m3
340 K, 1069 kPa	52.63 ± 0.53 kg/m3
340 K, 1090 kPa	53.99 ± 0.53 kg/m3
340 K, 1117 kPa	55.66 ± 0.54 kg/m3
340 K, 1134 kPa	56.71 ± 0.57 kg/m3
340 K, 1154 kPa	58.04 ± 0.46 kg/m3
340 K, 1175 kPa	59.4 ± 0.47 kg/m3
340 K, 1196 kPa	60.76 ± 0.46 kg/m3
340 K, 1218 kPa	62.25 ± 0.49 kg/m3
340 K, 1238 kPa	63.68 ± 0.51 kg/m3
340 K, 1262 kPa	65.39 ± 0.53 kg/m3
340 K, 1284 kPa	67.01 ± 0.55 kg/m3
340 K, 1305 kPa	68.59 ± 0.55 kg/m3
340 K, 1308 kPa	68.83 ± 0.5 kg/m3
340 K, 1331 kPa	70.6 ± 0.57 kg/m3 and 70.59 ± 0.5 kg/m3
340 K, 1354 kPa	72.27 ± 0.52 kg/m3
340 K, 1356 kPa	72.51 ± 0.59 kg/m3
340 K, 1378 kPa	74.19 ± 0.51 kg/m3
340 K, 1384 kPa	74.55 ± 0.6 kg/m3
340 K, 1398 kPa	75.77 ± 0.55 kg/m3
340 K, 1420 kPa	77.51 ± 0.56 kg/m3
340 K, 1441 kPa	79.28 ± 0.58 kg/m3
340 K, 1465 kPa	81.46 ± 0.6 kg/m3
340 K, 1482 kPa	83.02 ± 0.6 kg/m3
340 K, 1490 kPa	83.71 ± 0.61 kg/m3
350 K, 777 kPa	34.25 ± 0.43 kg/m3
350 K, 794 kPa	35.1 ± 0.43 kg/m3
350 K, 809 kPa	35.85 ± 0.45 kg/m3
350 K, 824 kPa	36.66 ± 0.45 kg/m3
350 K, 841 kPa	37.55 ± 0.47 kg/m3
350 K, 861 kPa	38.6 ± 0.47 kg/m3
350 K, 880 kPa	39.57 ± 0.49 kg/m3
350 K, 899 kPa	40.59 ± 0.51 kg/m3
350 K, 921 kPa	41.8 ± 0.51 kg/m3
350 K, 943 kPa	42.97 ± 0.52 kg/m3
350 K, 974 kPa	44.44 ± 0.43 kg/m3
350 K, 992 kPa	45.42 ± 0.46 kg/m3
350 K, 1009 kPa	46.4 ± 0.46 kg/m3
350 K, 1033 kPa	47.69 ± 0.48 kg/m3
350 K, 1050 kPa	48.68 ± 0.48 kg/m3
350 K, 1073 kPa	49.96 ± 0.5 kg/m3
350 K, 1081 kPa	50.42 ± 0.5 kg/m3
350 K, 1097 kPa	51.34 ± 0.49 kg/m3
350 K, 1118 kPa	52.57 ± 0.52 kg/m3
350 K, 1146 kPa	54.28 ± 0.54 kg/m3
350 K, 1166 kPa	55.47 ± 0.54 kg/m3
350 K, 1184 kPa	56.54 ± 0.55 kg/m3
350 K, 1212 kPa	58.14 ± 0.47 kg/m3
350 K, 1228 kPa	59.18 ± 0.46 kg/m3
350 K, 1253 kPa	60.74 ± 0.47 kg/m3
350 K, 1281 kPa	62.46 ± 0.5 kg/m3
350 K, 1299 kPa	63.7 ± 0.5 kg/m3
350 K, 1325 kPa	65.31 ± 0.52 kg/m3
350 K, 1352 kPa	67.13 ± 0.54 kg/m3
350 K, 1374 kPa	68.68 ± 0.54 kg/m3
350 K, 1376 kPa	68.87 ± 0.49 kg/m3
350 K, 1400 kPa	70.45 ± 0.48 kg/m3
350 K, 1403 kPa	70.69 ± 0.56 kg/m3
350 K, 1422 kPa	72.01 ± 0.49 kg/m3
350 K, 1434 kPa	72.82 ± 0.59 kg/m3
350 K, 1451 kPa	74.02 ± 0.46 kg/m3
350 K, 1460 kPa	74.47 ± 0.61 kg/m3
350 K, 1474 kPa	75.65 ± 0.52 kg/m3
350 K, 1499 kPa	77.45 ± 0.53 kg/m3
350 K, 1526 kPa	79.54 ± 0.53 kg/m3
350 K, 1552 kPa	81.57 ± 0.57 kg/m3
350 K, 1580 kPa	83.73 ± 0.59 kg/m3
350 K, 1611 kPa	86.28 ± 0.58 kg/m3
350 K, 1645 kPa	88.62 ± 0.5 kg/m3
350 K, 1667 kPa	90.44 ± 0.54 kg/m3
350 K, 1692 kPa	92.58 ± 0.54 kg/m3
350 K, 1722 kPa	95.16 ± 0.56 kg/m3
350 K, 1748 kPa	97.5 ± 0.59 kg/m3
350 K, 1773 kPa	99.83 ± 0.77 kg/m3
350 K, 1798 kPa	102.24 ± 0.62 kg/m3
350 K, 1822 kPa	104.65 ± 0.65 kg/m3
350 K, 1850 kPa	107.61 ± 0.69 kg/m3
350 K, 1869 kPa	109.92 ± 0.71 kg/m3
360 K, 806 kPa	34.26 ± 0.42 kg/m3
360 K, 822 kPa	35.02 ± 0.43 kg/m3
360 K, 838 kPa	35.83 ± 0.45 kg/m3
360 K, 858 kPa	36.81 ± 0.45 kg/m3
360 K, 872 kPa	37.5 ± 0.46 kg/m3
360 K, 893 kPa	38.54 ± 0.46 kg/m3
360 K, 914 kPa	39.59 ± 0.48 kg/m3
360 K, 934 kPa	40.62 ± 0.5 kg/m3
360 K, 957 kPa	41.79 ± 0.48 kg/m3
360 K, 980 kPa	42.97 ± 0.52 kg/m3
360 K, 996 kPa	43.76 ± 0.51 kg/m3
360 K, 1013 kPa	44.41 ± 0.42 kg/m3
360 K, 1032 kPa	45.38 ± 0.45 kg/m3
360 K, 1053 kPa	46.47 ± 0.45 kg/m3
360 K, 1076 kPa	47.64 ± 0.47 kg/m3
360 K, 1093 kPa	48.62 ± 0.47 kg/m3
360 K, 1123 kPa	50.21 ± 0.49 kg/m3
360 K, 1142 kPa	51.25 ± 0.49 kg/m3
360 K, 1164 kPa	52.52 ± 0.51 kg/m3
360 K, 1190 kPa	53.97 ± 0.51 kg/m3
360 K, 1217 kPa	55.45 ± 0.53 kg/m3
360 K, 1246 kPa	56.97 ± 0.54 kg/m3
360 K, 1249 kPa	57.15 ± 0.54 kg/m3
360 K, 1263 kPa	57.94 ± 0.45 kg/m3
360 K, 1285 kPa	59.28 ± 0.46 kg/m3
360 K, 1310 kPa	60.71 ± 0.42 kg/m3
360 K, 1335 kPa	62.17 ± 0.48 kg/m3
360 K, 1359 kPa	63.66 ± 0.48 kg/m3
360 K, 1386 kPa	65.23 ± 0.5 kg/m3
360 K, 1414 kPa	66.98 ± 0.52 kg/m3
360 K, 1438 kPa	68.45 ± 0.53 kg/m3
360 K, 1441 kPa	68.77 ± 0.47 kg/m3
360 K, 1466 kPa	70.29 ± 0.54 kg/m3 and 70.3 ± 0.47 kg/m3
360 K, 1493 kPa	72.04 ± 0.49 kg/m3
360 K, 1502 kPa	72.6 ± 0.56 kg/m3
360 K, 1523 kPa	73.94 ± 0.48 kg/m3
360 K, 1535 kPa	74.54 ± 0.57 kg/m3
360 K, 1545 kPa	75.43 ± 0.52 kg/m3
360 K, 1580 kPa	77.76 ± 0.53 kg/m3
360 K, 1607 kPa	79.57 ± 0.54 kg/m3
360 K, 1634 kPa	81.53 ± 0.56 kg/m3
360 K, 1665 kPa	83.71 ± 0.58 kg/m3
360 K, 1695 kPa	85.89 ± 0.58 kg/m3
360 K, 1725 kPa	87.95 ± 0.58 kg/m3
360 K, 1737 kPa	88.54 ± 0.49 kg/m3
360 K, 1760 kPa	90.28 ± 0.52 kg/m3
360 K, 1787 kPa	92.36 ± 0.52 kg/m3
360 K, 1815 kPa	94.55 ± 0.54 kg/m3
360 K, 1850 kPa	97.28 ± 0.56 kg/m3
360 K, 1886 kPa	100.24 ± 0.59 kg/m3
360 K, 1926 kPa	103.58 ± 0.61 kg/m3
360 K, 1936 kPa	104.54 ± 0.62 kg/m3
360 K, 1964 kPa	107.1 ± 0.62 kg/m3
360 K, 1999 kPa	110.25 ± 0.64 kg/m3
360 K, 2157 kPa	125.99 ± 0.63 kg/m3
360 K, 2180 kPa	128.5 ± 0.65 kg/m3
360 K, 2212 kPa	132.17 ± 0.66 kg/m3
360 K, 2224 kPa	133.7 ± 0.69 kg/m3
360 K, 2247 kPa	136.47 ± 0.7 kg/m3
360 K, 2279 kPa	140.52 ± 0.73 kg/m3
360 K, 2287 kPa	141.76 ± 0.78 kg/m3
360 K, 2300 kPa	143.52 ± 0.76 kg/m3
